{"source": "patent US20240398785A1", "about": "“SMALL MOLECULE DRUGS FOR THE INDUCTION OF TRAINED IMMUNITY” (THE UNIVERSITY OF CHICAGO, priority 2023, published 2024)", "key": {"BMDMs": {"test_system": "BMDMs", "assay": "Annexin-V staining for apoptotic cells", "format": "cell-based, mouse", "settings": "100 nM, 24 hours", "protocol": "FIGS. 9A-9E: Representative plots for Annexin V gating strategy for apoptotic cells: BMDMs were stimulated with nothing (unstained control, FIG. 9A), PBS (negative control, FIG. 9B), Camptothecin (positive control, FIG. 9C) or A1155463 (FIG. 9D); n=3, (except camptothecin n=1). Results from plots 9B-9D depicted in FIG. 9E.\nSince Bcl-xL is a known anti-apoptotic protein, a study was performed to see if inhibition with 100 nM A1155463 induced apoptosis in BMDMs. To test this, Annexin-V staining was used to gate for apoptotic cells 24 hours following stimulation with either PBS or A1155463."}, "mice": {"test_system": "mice", "assay": "A1155463 in-vivo training, LPS challenge", "set-up": "species or system mouse", "protocol": "FIGS. 6A-6H: in-vivo A1155463 trained immunity (TI) assays. FIG. 6A is a schematic showing the in-vivo training schedule. Mice were dosed intraperitoneally (i.p.) with training material (PBS or A1155463 at 15 milligrams per kilogram body weight (mg/kg)) daily for six days. […] FIG. 6B is a graph showing the interleukin-6 (IL-6) and tumor necrosis factor-alpha (TNF-α) levels (expressed as picograms per milliliter (pg/ml) 1 hour (h) following LPS challenge with either PBS (black) or A1155463 (pink); n=5. FIG. 6C is a graph showing the percentage (%) of small peritoneal macrophages (SPMs) from the peritoneal cavity of PBS (black) or A1155463 trained (pink) mice 2 h post LPS challenge on day 7. FIG. 6D is a graph showing the IL-6 levels (pg/ml) from bone-marrow cells isolated on day 7 challenged ex-vivo with LPS from either PBS (black) or A1155463 (pink) trained mice; n=3. FIG. 6E is a schematic showing the in-vivo training schedule for B16.F10 tumor challenge. FIG. 6F is a graph showing the tumor volumes (in cubic millimeters (mm3)) of mice trained with PBS (black) or A1155463 (pink) mice; n=8. FIG. 6G is a schematic of the in-vivo training schedule for B16.F10 tumor challenge with checkpoint therapy (CPT) administered on day 14 and 17. FIG. 6H is a graph showing tumor volumes (mm^3) of mice trained with PBS (black; n=4) or A1155463 (pink; n=5).\nFIG. 10: Ruling out innate immune priming: Mice were trained with PBS or vehicle (black) or A1155463 (pink) according to schedule illustrated in FIG. 6A.\nSince A1155463 induced training effects in-vitro, its ability to induce training in mice was studied. […] The vehicle control group was also dosed similarly to account for solvent effects. To rule out the impact of innate immune priming due to the high dosage, systemic cytokines were checked for 24 hours after the last dosing on day 6. […] […].\nApart from increased systemic cytokines, recruitment of monocyte-derived small peritoneal macrophages (SPMs) is another hallmark of enhanced training. […] Central effects of trained immunity occur at the bone-marrow progenitor favoring myelopoiesis.^39 To test if A1155463 induced training effects in bone-marrow cells, cells were isolated from the bone-marrow seven days following the training schedule described in FIG. 6A. Bone-marrow cells from PBS or A1155463 trained cells were challenged with 5 ng/mL of LPS and the supernatant was analyzed 24 hours later. […]."}, "B16.F10 tumors": {"test_system": "B16.F10 tumors", "assay": "B16.F10 tumor model after A1155463 training", "format": "in vivo, mouse", "protocol": "FIGS. 6A-6H: in-vivo A1155463 trained immunity (TI) assays. FIG. 6A is a schematic showing the in-vivo training schedule. Mice were dosed intraperitoneally (i.p.) with training material (PBS or A1155463 at 15 milligrams per kilogram body weight (mg/kg)) daily for six days. Mice were challenged with 5 mg lipopolysaccharide (LPS) on day 7. FIG. 6B is a graph showing the interleukin-6 (IL-6) and tumor necrosis factor-alpha (TNF-α) levels (expressed as picograms per milliliter (pg/ml) 1 hour (h) following LPS challenge with either PBS (black) or A1155463 (pink); n=5. FIG. 6C is a graph showing the percentage (%) of small peritoneal macrophages (SPMs) from the peritoneal cavity of PBS (black) or A1155463 trained (pink) mice 2 h post LPS challenge on day 7. FIG. 6D is a graph showing the IL-6 levels (pg/ml) from bone-marrow cells isolated on day 7 challenged ex-vivo with LPS from either PBS (black) or A1155463 (pink) trained mice; n=3. FIG. 6E is a schematic showing the in-vivo training schedule for B16.F10 tumor challenge. FIG. 6F is a graph showing the tumor volumes (in cubic millimeters (mm3)) of mice trained with PBS (black) or A1155463 (pink) mice; n=8. FIG. 6G is a schematic of the in-vivo training schedule for B16.F10 tumor challenge with checkpoint therapy (CPT) administered on day 14 and 17. […]"}, "[1]": {"settings": "15 mg/kg i.p. daily for 6 days, LPS 5 μg per mouse, after 1 hour"}}}
{"smiles": "CN(C)CC#Cc1ccc(OCCCc2sc(N3CCc4cccc(C(=O)Nc5nc6ccccc6s5)c4C3)nc2C(=O)O)c(F)c1", "note": "[A1155463, 2-(8-(benzo[d]thiazol-2-ylcarbamoyl)-3,4-dihydroisoquinolin-2(1H)-yl)-5-(3-(4-(3-(dimethyl-amino)prop-1-yn-1-yl)-2-fluorophenoxy)propyl)thiozole-4-carboxylic acid]", "values": [{"measurement": "percentage of apoptotic cells", "setting": "BMDMs", "result": "No significant difference"}, {"measurement": "systemic IL-6 or TNF-α without challenge (priming)", "setting": "mice; 15 mg/kg i.p. daily for 6 days, 24 hours after the last dosing", "result": "No systemic IL-6 or TNF-α was observed"}, {"measurement": "increase in IL-6 following LPS challenge", "setting": "mice; [1]", "result": 2.3, "unit": "fold"}, {"measurement": "increase in TNF-α following LPS challenge", "setting": "mice; [1]", "result": 1.97, "unit": "fold"}, {"measurement": "percentage of SPMs", "setting": "mice; two hours post-LPS challenge", "result": "non-significant increase"}, {"measurement": "tumor growth vs untrained (vehicle) control", "setting": "B16.F10 tumors; 15 mg/kg daily for 6 days, s.c. B16.F10 24 hours after last dosing", "result": "significant decrease in tumor growth"}, {"measurement": "tumor growth with checkpoint therapy", "setting": "B16.F10 tumors; plus anti-PDL1 and anti-CTLA-4 on days 14 and 17", "result": "Significantly reduced tumor growth"}]}
